Results published in PubChem BioAssay AID1918993 (Molecular Pharmacology Branch, DTP, NCI, 2023).
Where “and” joins values, the source holds several entries; their conditions need not be identical. Equal values may be shown once. Values belong to the compound of their own block, whether it stands above or below them.

Test system: 233499-124-R-J3-PDC complex spheroid growth
Assay: Anticancer human tumor 233499-124-R-J3-PDC patient-derived colon adenocarcinoma cell line growth inhibition [AhR]
Conditions: for viability, T/C: stronger effect = lower value
In short: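 Spheroids combined tumor cells with HUVEC endothelial cells and human MSCs as stroma. AhR antagonists were paired with standard or investigational drugs, each dosed in half-log steps down from near clinical Cmax, or from 10 microM where Cmax was unknown.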

[1] = curve of first compound, second compound 0.1 µM
[2] = curve of first compound, second compound 0.316 µM
[3] = curve of first compound, second compound 1 µM
[4] = curve of first compound, second compound 3.16 µM
[5] = curve of first compound, second compound 10 µM
[6] = second compound 0.1 µM, first compound 0.0316 µM
[7] = second compound 0.1 µM, first compound 0.1 µM
[8] = second compound 0.1 µM, first compound 0.316 µM
[9] = second compound 0.1 µM, first compound 1 µM
[10] = second compound 0.1 µM, first compound 3.16 µM
[11] = second compound 0.1 µM, first compound 10 µM
[12] = second compound 0.316 µM, first compound 0.0316 µM
[13] = second compound 0.316 µM, first compound 0.1 µM
[14] = second compound 0.316 µM, first compound 0.316 µM
[15] = second compound 0.316 µM, first compound 1 µM
[16] = second compound 0.316 µM, first compound 3.16 µM
[17] = second compound 0.316 µM, first compound 10 µM
[18] = second compound 1 µM, first compound 0.0316 µM
[19] = second compound 1 µM, first compound 0.1 µM
[20] = second compound 1 µM, first compound 0.316 µM
[21] = second compound 1 µM, first compound 1 µM
[22] = second compound 1 µM, first compound 3.16 µM
[23] = second compound 1 µM, first compound 10 µM
[24] = second compound 3.16 µM, first compound 0.0316 µM
[25] = second compound 3.16 µM, first compound 0.1 µM
[26] = second compound 3.16 µM, first compound 0.316 µM
[27] = second compound 3.16 µM, first compound 1 µM
[28] = second compound 3.16 µM, first compound 3.16 µM
[29] = second compound 3.16 µM, first compound 10 µM
[30] = second compound 10 µM, first compound 0.0316 µM
[31] = second compound 10 µM, first compound 0.1 µM
[32] = second compound 10 µM, first compound 0.316 µM
[33] = second compound 10 µM, first compound 1 µM
[34] = second compound 10 µM, first compound 3.16 µM
[35] = second compound 10 µM, first compound 10 µM
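Further: spheroids exposed to agents for seven days before reading.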

Structure (SMILES): O=C(C=Cc1cccc(S(=O)(=O)Nc2ccccc2)c1)NO + Cc1ccccc1N=Nc1ccc(NC(=O)c2ccnn2C)c(C)c1
IC50 [1]: 6.62 µM
IC50 [2]: 5.96 µM
IC50 [3]: 6.36 µM
IC50 [4]: 5.56 µM
IC50 [5]: 4.22 µM
viability, T/C [6]: 98.3%
viability, T/C [7]: 97.5%
viability, T/C [8]: 110%
viability, T/C [9]: 139%
viability, T/C [10]: 127%
viability, T/C [11]: 14%
viability, T/C [12]: 95.2%
viability, T/C [13]: 103%
viability, T/C [14]: 127%
viability, T/C [15]: 126%
viability, T/C [16]: 104%
viability, T/C [17]: 5.9%
viability, T/C [18]: 110%
viability, T/C [19]: 102%
viability, T/C [20]: 116%
viability, T/C [21]: 126%
viability, T/C [22]: 111%
viability, T/C [23]: 10.7%
viability, T/C [24]: 102%
viability, T/C [25]: 102%
viability, T/C [26]: 105%
viability, T/C [27]: 129%
viability, T/C [28]: 89.6%
viability, T/C [29]: 9.1%
viability, T/C [30]: 94.4%
viability, T/C [31]: 101%
viability, T/C [32]: 98.5%
viability, T/C [33]: 94.1%
viability, T/C [34]: 65.4%
viability, T/C [35]: 3.82%

Structure (SMILES): CCc1c2c(nc3ccc(O)cc13)-c1cc3c(c(=O)n1C2)COC(=O)[C@]3(O)CC
viability, T/C (compound 0.000949 µM): 117% and 96.2% and 99.4%
viability, T/C (compound 0.003 µM): 93.8% and 87.6% and 85.8%
viability, T/C (compound 0.00949 µM): 89.5% and 85.3% and 77.4%
viability, T/C (compound 0.03 µM): 69.6% and 75.1% and 56.9%
viability, T/C (compound 0.0949 µM): 84.1% and 84% and 77.8%
viability, T/C (compound 0.3 µM): 98.5% and 95.3% and 73.3%
IC50 (curve of compound): > 0.3 µM

Structure (SMILES): O=C(C=Cn1cnc(-c2cc(C(F)(F)F)cc(C(F)(F)F)c2)n1)NNc1cnccn1 + Cc1ccccc1N=Nc1ccc(NC(=O)c2ccnn2C)c(C)c1
IC50 [1]: > 3 µM
IC50 [2]: > 3 µM
IC50 [3]: > 3 µM
IC50 [4]: > 3 µM
IC50 [5]: > 3 µM
viability, T/C (second compound 0.1 µM, first compound 0.00949 µM): 109%
viability, T/C (second compound 0.1 µM, first compound 0.03 µM): 91.2%
viability, T/C (second compound 0.1 µM, first compound 0.0949 µM): 110%
viability, T/C (second compound 0.1 µM, first compound 0.3 µM): 86.7%
viability, T/C (second compound 0.1 µM, first compound 0.949 µM): 96%
viability, T/C (second compound 0.1 µM, first compound 3 µM): 61%
viability, T/C (second compound 0.316 µM, first compound 0.00949 µM): 104%
viability, T/C (second compound 0.316 µM, first compound 0.03 µM): 113%
viability, T/C (second compound 0.316 µM, first compound 0.0949 µM): 111%
viability, T/C (second compound 0.316 µM, first compound 0.3 µM): 96.4%
viability, T/C (second compound 0.316 µM, first compound 0.949 µM): 87.3%
viability, T/C (second compound 0.316 µM, first compound 3 µM): 76.8%
viability, T/C (second compound 1 µM, first compound 0.00949 µM): 97.8%
viability, T/C (second compound 1 µM, first compound 0.03 µM): 98.3%
viability, T/C (second compound 1 µM, first compound 0.0949 µM): 116%
viability, T/C (second compound 1 µM, first compound 0.3 µM): 100%
viability, T/C (second compound 1 µM, first compound 0.949 µM): 78%
viability, T/C (second compound 1 µM, first compound 3 µM): 77.8%
viability, T/C (second compound 3.16 µM, first compound 0.00949 µM): 98%
viability, T/C (second compound 3.16 µM, first compound 0.03 µM): 99.1%
viability, T/C (second compound 3.16 µM, first compound 0.0949 µM): 92.8%
viability, T/C (second compound 3.16 µM, first compound 0.3 µM): 86.8%
viability, T/C (second compound 3.16 µM, first compound 0.949 µM): 93.2%
viability, T/C (second compound 3.16 µM, first compound 3 µM): 70.8%
viability, T/C (second compound 10 µM, first compound 0.00949 µM): 101%
viability, T/C (second compound 10 µM, first compound 0.03 µM): 85%
viability, T/C (second compound 10 µM, first compound 0.0949 µM): 85.3%
viability, T/C (second compound 10 µM, first compound 0.3 µM): 108%
viability, T/C (second compound 10 µM, first compound 0.949 µM): 85.6%
viability, T/C (second compound 10 µM, first compound 3 µM): 50.2%

Structure (SMILES): Nc1ccn(C2OC(CO)C(O)C2(F)F)c(=O)n1 (configuration not stated) + Cc1ccccc1N=Nc1ccc(NC(=O)c2ccnn2C)c(C)c1
IC50 [1]: > 10 µM
IC50 [2]: 0.282 µM
IC50 [3]: > 10 µM
IC50 [4]: > 10 µM
IC50 [5]: > 10 µM
viability, T/C [6]: 103%
viability, T/C [7]: 93.1%
viability, T/C [8]: 69.5%
viability, T/C [9]: 56.9%
viability, T/C [10]: 65.7%
viability, T/C [11]: 64.6%
viability, T/C [12]: 91.2%
viability, T/C [13]: 101%
viability, T/C [14]: 42.1%
viability, T/C [15]: 39.1%
viability, T/C [16]: 41%
viability, T/C [17]: 57%
viability, T/C [18]: 95.5%
viability, T/C [19]: 93.7%
viability, T/C [20]: 62.8%
viability, T/C [21]: 47.4%
viability, T/C [22]: 59.6%
viability, T/C [23]: 53.6%
viability, T/C [24]: 84.5%
viability, T/C [25]: 81.3%
viability, T/C [26]: 65.9%
viability, T/C [27]: 55.8%
viability, T/C [28]: 65.8%
viability, T/C [29]: 68.7%
viability, T/C [30]: 94%
viability, T/C [31]: 111%
viability, T/C [32]: 93.5%
viability, T/C [33]: 87.8%
viability, T/C [34]: 71.2%
viability, T/C [35]: 76.5%

More lines, main results first:

IC50 [1]: > 10 µM
IC50 [2]: > 10 µM
IC50 [3]: > 10 µM
IC50 [4]: > 10 µM
IC50 [5]: > 10 µM
Structure (SMILES): COc1ccc([C@@H](O)c2cc(-c3ncnc4cc(N5CCOCC5)ccc34)c(F)cc2Cl)nn1 + Cc1ccccc1N=Nc1ccc(NC(=O)c2ccnn2C)c(C)c1
viability, T/C [6]: 90.3%
viability, T/C [7]: 98.9%
viability, T/C [8]: 96.8%
viability, T/C [9]: 104%
viability, T/C [10]: 101%
viability, T/C [11]: 89.2%
viability, T/C [12]: 97.3%
viability, T/C [13]: 101%
viability, T/C [14]: 86.3%
viability, T/C [15]: 102%
viability, T/C [16]: 92%
viability, T/C [17]: 63.6%
viability, T/C [18]: 104%
viability, T/C [19]: 98.4%
viability, T/C [20]: 102%
viability, T/C [21]: 95.7%
viability, T/C [22]: 85.5%
viability, T/C [23]: 90.2%
viability, T/C [24]: 99.5%
viability, T/C [25]: 101%
viability, T/C [26]: 93.5%
viability, T/C [27]: 97.8%
viability, T/C [28]: 92.2%
viability, T/C [29]: 76.3%
viability, T/C [30]: 90.5%
viability, T/C [31]: 90.3%
viability, T/C [32]: 85.6%
viability, T/C [33]: 94.6%
viability, T/C [34]: 91.4%
viability, T/C [35]: 60.6%

IC50 [1]: > 10 µM
IC50 [2]: > 10 µM
IC50 [3]: > 10 µM
IC50 [4]: > 10 µM
IC50 [5]: < 0.0316 µM
Structure (SMILES): COc1ccc([C@@H](O)c2cc(-c3ncnc4cc(N5CCOCC5)ccc34)c(F)cc2Cl)nn1 + Cc1cncc(-c2nc(NCCc3c[nH]c4ccccc34)c3ncn(C(C)C)c3n2)c1
viability, T/C [6]: 87.6%
viability, T/C [7]: 82.5%
viability, T/C [8]: 84.5%
viability, T/C [9]: 90.5%
viability, T/C [10]: 70.3%
viability, T/C [11]: 64.1%
viability, T/C [12]: 95.3%
viability, T/C [13]: 77.3%
viability, T/C [14]: 79.8%
viability, T/C [15]: 64.5%
viability, T/C [16]: 70.4%
viability, T/C [17]: 67.7%
viability, T/C [18]: 75.7%
viability, T/C [19]: 73.3%
viability, T/C [20]: 65.7%
viability, T/C [21]: 66.4%
viability, T/C [22]: 60.8%
viability, T/C [23]: 67.5%
viability, T/C [24]: 74.2%
viability, T/C [25]: 72.7%
viability, T/C [26]: 68.1%
viability, T/C [27]: 69%
viability, T/C [28]: 61.4%
viability, T/C [29]: 71.7%
viability, T/C [30]: 1.87%
viability, T/C [31]: 1.89%
viability, T/C [32]: 4.9%
viability, T/C [33]: 2.28%
viability, T/C [34]: 1.45%
viability, T/C [35]: 4.49%
